Tests used:
[1] = Body weight after maximum dose regime (90 mg/kg) in mice; type: in vivo; conditions: 90 mg/kg oral gavage daily for 5 days, euthanasia 96 hr after last dose
Method: FIG. 15. Murine weight change after maximum dose regime (90 mg/kg).
(§1) The effects of compounds C30 and C38 at single high dose of 90 mg/kg. Twelve male mice were divided into three groups: 1) Control group (4 mice), 2) compound C30 (4 mice) and 3) compound C38 (4 mice). By oral gavage, animals were given 90 mg/kg of agent daily for 5 consecutive days (vehicle: 30% Solutol in saline). Mice were weighed every day during the treatment period. They were humanely euthanized 96 hours after the last dose. Tissues including the pancreas, liver and kidneys were collected (snap frozen in liquid nitrogen) for RNA extraction. […] Those given compound C30 lost ˜5% of body weight (FIG. 15).

TXNIP/TRX interaction = target: T1, TXNIP/TRX interaction (Homo sapiens, UniProt Q9H3M7); assay: TXNIP/TRX co-immunoprecipitation in THP1 cells; type: cell-based; conditions: 25 mM glucose, 5 uM compound, up to 72 hours
T1 construct: endogenous in cells; host or cells: THP1 cells cultured under 25 mM glucose; nuclear cell extracts
T1 sequence (Q9H3M7 1-391): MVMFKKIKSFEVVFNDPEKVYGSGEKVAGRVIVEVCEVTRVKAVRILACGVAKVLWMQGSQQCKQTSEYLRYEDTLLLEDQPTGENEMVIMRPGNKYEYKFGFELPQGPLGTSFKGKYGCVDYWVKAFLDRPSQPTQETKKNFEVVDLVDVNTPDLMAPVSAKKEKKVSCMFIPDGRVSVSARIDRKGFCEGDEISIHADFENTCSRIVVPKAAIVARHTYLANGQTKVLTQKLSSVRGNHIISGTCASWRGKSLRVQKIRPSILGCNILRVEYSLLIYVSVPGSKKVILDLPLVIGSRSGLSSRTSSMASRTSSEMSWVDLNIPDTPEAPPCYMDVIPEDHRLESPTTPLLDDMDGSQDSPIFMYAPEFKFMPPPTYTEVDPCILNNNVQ
Method: FIG. 8. Effects of C30 and C38 on TXNIP/TRX interaction. THP1 cells were cultured under 25 mM glucose with 5 uM C30 or C38 for 72 hours. Aliquots were taken at different time points as indicated and nuclear cell extracts were prepared. Standard co-IP was performed with mouse anti-TRX Ab overnight. Beads were washed with buffer and blots treated with rabbit anti-TXNIP antibody (Ab) for detection of the complex (upper band).
(§2) Experimental testing of small molecules: We developed several different bench-based assays to perform rigorous and reproducible tests for the predicted hit molecules. These assays include testing direct binding to TXNIP as well as functional assays including under diabetic high glucose conditions. The assays are: (1) drug affinity responsive target stability test that tests the direct binding of the compounds. In this assay, when a compound binds to its target molecule, it can reduce the rate of its proteolytic digestion. (2) This assay looks for compounds that can interfere with the interaction between TXNIP and TRX in THP-1 monocytes treated with high glucose. TXNIP is highly expressed in cells treated with high glucose, and therefore would have high concentration of TXNIP/TRX complexes in the cell extract. Co-immunoprecipitation was done in these extracts through adding TRX antibody, and then the effects of compounds added were tested. […]

TXNIP = target: T2, TXNIP (Homo sapiens, UniProt Q9H3M7); assay: Drug affinity responsive target stability (DARTS) assay, THP1 cell extracts; type: binding; conditions: THP-1 cell extracts, protease, aliquots at 7 minutes
T2 construct: THP1 cells were lysed with extract buffer; endogenous in cells; host or cells: THP1 cells cultured in RPMI 1640 under 25 mM glucose for 72 hours; cell extracts
T2 sequence (Q9H3M7 1-391): T1 sequence (Q9H3M7 1-391)
Method: FIG. 9. Treatment with C30 and C38 protects TXNIP from proteolysis in a DARTS assay. THP1 cell were cultured in RPMI 1640 medium under 25 mM glucose for 72 hours. Cell extracts were prepared. C30 and C38 were added at the indicated concentrations and protease was added except control lanes. Aliquots were withdrawn at 7 minutes and loaded on 10% SDS gels. Control: without protease.
as §2

TXNIP mRNA = assay: TXNIP expression in murine kidneys after oral dosing (RT-PCR); type: in vivo, C57BL/6 mice; conditions: 90 mg/kg oral gavage daily for five days, 96 hr after last dose
Method: FIG. 17. Compounds C30 and C38 reduce TXNIP expression in murine kidneys. Twelve male C57BL/6 mice were divided into three groups (vehicle, C30 and C38, 4/group). They received 90 mg/kg dose of compounds daily for five consecutive days. Compounds were given through oral gavage and mice were humanely euthanized 96 hr after the last drug administration. Kidneys were collected for total RNA preparation. RT-PCR was performed in triplicate and data shown are the mean±SEM. Statistical analysis was performed using one-way ANOVA: *p<0.05.
as §1
Expression of TXNIP in vivo in treated mice.

SMILES	weight loss [1]	TXNIP association/interaction with TRX (co-IP band) (TXNIP/TRX interaction)	concentration from which TXNIP is protected from proteolysis (TXNIP) [µM]	RNA expression level of TXNIP in kidneys (TXNIP mRNA)	loss of body weight [1] [%]
c1ccc(CCNc2ncnc3c2oc2ccccc23)cc1 [Compound C38]	no significant weight loss	this interference was clearly reduced	~0.5	reduced	–
COc1cc(N2CC[C@@H](c3ccc4ccccc4c3)[C@H](O)C2)nc(N)n1 [Compound C30]	–	significantly reduced	~0.5	reduced	~5
